From the CheMixHub ionic liquid set

Assay: xn = mol fraction of the nth substance listed

CC(=O)Oc1ccccc1C(=O)O + CC#N + CCCCCC[n+]1ccn(C)c1.[Br-]
viscosity [mPa·s], 101 kPa
Details | 288.15 K | 298.15 K | 308.15 K | 318.15 K
x1 = 0.001647, x3 = 0 | 0.394 | 0.349 | 0.316 | 0.292
x1 = 0.001682, x3 = 0.004167 | 0.408 | 0.37 | 0.336 | 0.309
x1 = 0.001814, x3 = 0.0117 | 0.434 | 0.393 | 0.372 | 0.343
x1 = 0.001864, x3 = 0.008116 | 0.431 | 0.388 | 0.353 | 0.324
x1 = 0.00335, x3 = 0.00416 | 0.412 | 0.373 | 0.34 | 0.313
x1 = 0.003412, x3 = 0 | 0.398 | 0.353 | 0.319 | 0.295
x1 = 0.003448, x3 = 0.01168 | 0.437 | 0.396 | 0.376 | 0.346
x1 = 0.003521, x3 = 0.008102 | 0.435 | 0.391 | 0.356 | 0.327
x1 = 0.004495, x3 = 0 | 0.402 | 0.355 | 0.322 | 0.297
x1 = 0.004647, x3 = 0.004154 | 0.416 | 0.376 | 0.343 | 0.315
x1 = 0.004832, x3 = 0.01167 | 0.441 | 0.399 | 0.38 | 0.349
x1 = 0.004834, x3 = 0.008092 | 0.438 | 0.395 | 0.359 | 0.33
x1 = 0.00569, x3 = 0 | 0.405 | 0.358 | 0.325 | 0.3
x1 = 0.005813, x3 = 0.004149 | 0.42 | 0.38 | 0.346 | 0.317
x1 = 0.005963, x3 = 0.008083 | 0.441 | 0.398 | 0.363 | 0.333
x1 = 0.006109, x3 = 0.01165 | 0.444 | 0.402 | 0.383 | 0.352
x1 = 0.006963, x3 = 0 | 0.408 | 0.362 | 0.328 | 0.303
x1 = 0.007083, x3 = 0.004144 | 0.423 | 0.383 | 0.349 | 0.32
x1 = 0.007249, x3 = 0.008072 | 0.444 | 0.401 | 0.366 | 0.335
x1 = 0.007314, x3 = 0.01164 | 0.448 | 0.406 | 0.386 | 0.355
x1 = 0.00845, x3 = 0 | 0.412 | 0.365 | 0.331 | 0.306
x1 = 0.008753, x3 = 0.004137 | 0.428 | 0.387 | 0.354 | 0.324
x1 = 0.008914, x3 = 0.008059 | 0.448 | 0.405 | 0.369 | 0.339
x1 = 0.00934, x2 = 0.979 | 0.452 | 0.41 | 0.39 | 0.359
x1 = 0.009969, x3 = 0 | 0.416 | 0.369 | 0.334 | 0.309
x1 = 0.009979, x3 = 0.004132 | 0.432 | 0.39 | 0.356 | 0.327
x1 = 0.01021, x2 = 0.9782 | 0.455 | 0.412 | 0.392 | 0.361
x1 = 0.01031, x3 = 0.008047 | 0.451 | 0.408 | 0.372 | 0.342
x1 = 0.01098, x3 = 0 | 0.419 | 0.371 | 0.337 | 0.311
x1 = 0.01114, x3 = 0.004127 | 0.436 | 0.393 | 0.359 | 0.33
x1 = 0.01158, x3 = 0.008037 | 0.454 | 0.411 | 0.375 | 0.345
x1 = 0.01173, x2 = 0.9767 | 0.458 | 0.416 | 0.396 | 0.364
x1 = 0.01219, x3 = 0 | 0.422 | 0.375 | 0.34 | 0.314
x1 = 0.0126, x3 = 0.004121 | 0.44 | 0.396 | 0.362 | 0.333
x1 = 0.01261, x2 = 0.9794 | 0.458 | 0.414 | 0.378 | 0.348
x1 = 0.01337, x2 = 0.9751 | 0.462 | 0.42 | 0.4 | 0.368

CC[n+]1ccn(C)c1.F[B-](F)(F)F + CC(=O)N(C)C
Details | electrical conductivity [S/m] | viscosity [mPa·s]
283.15 K, 100 kPa, x1 = 0.0006798 | 0.03925 | –
288.15 K, 100 kPa, x1 = 0.001378 | 0.07985 | –
298.15 K, 100 kPa, x1 = 0.0004953 | 0.03615 | –
303.15 K, 101 kPa, x2 = 0 | – | 28
303.15 K, 101 kPa, x2 = 0.1998 | – | 18.05
303.15 K, 101 kPa, x2 = 0.6 | – | 5.678
303.15 K, 101 kPa, x2 = 0.6996 | – | 3.833
303.15 K, 101 kPa, x2 = 0.8001 | – | 2.499
313.15 K, 100 kPa, x1 = 0.0006798 | 0.05765 | –
313.15 K, 101 kPa, x2 = 0.5005 | – | 6.172
313.15 K, 101 kPa, x2 = 0.6 | – | 4.493
323.15 K, 101 kPa, x2 = 0 | – | 15.35
323.15 K, 101 kPa, x2 = 0.2995 | – | 8.36
333.15 K, 101 kPa, x2 = 0.2995 | – | 6.91
333.15 K, 101 kPa, x2 = 0.3989 | – | 5.375

CCS(=O)(=O)[O-].[NH4+] + CC(=O)[O-].CC[n+]1ccn(C)c1
101 kPa
Details | electrical conductivity [S/m] | viscosity [mPa·s]
313.15 K, x1 = 0.1701 | 0.38 | 112.1
318.15 K, x1 = 0.05 | 0.649 | 51.8
323.15 K, x1 = 0.0999 | 0.669 | 50.7
323.15 K, x1 = 0.1701 | 0.588 | 65.1

OC[C@@H](O)[C@@H](O)[C@H](O)[C@@H](O)CO + CC(=O)[O-].CC[n+]1ccn(C)c1
303.15 K, 100 kPa
Details | viscosity [mPa·s]
x1 = 0.1894 | 283
x1 = 0.5836 | 2256

CC[n+]1ccn(C)c1.F[B-](F)(F)F + CC(=O)c1ccccc1
Details | viscosity [mPa·s]
293.15 K, 100 kPa, x2 = 0 | 42.7

C[N+](C)(C)Cc1ccccc1.[Cl-] + CCC(O)CO
101.13 kPa, x1 = 0.5
Details | electrical conductivity [S/m] | viscosity [mPa·s]
308 K | – | 64
323 K | 0.53 | –

CCCCCCCCCC(=O)[O-].CCCCCCCCCCCCCC[P+](CCCCCC)(CCCCCC)CCCCCC + CCCC(=O)O + O
298 K, 100 kPa
Details | viscosity [mPa·s]
x2 = 0, x3 = 0.8754 | 96
x2 = 0.02766, x3 = 0.8266 | 95
x2 = 0.04982, x3 = 0.8036 | 97
x2 = 0.3259, x3 = 0.4715 | 100
x2 = 0.4065, x3 = 0.3936 | 96
x2 = 0.4564, x3 = 0.3488 | 91
x2 = 0.4978, x3 = 0.3385 | 78

CCCCCCCC[N+](CCCCCCCC)(CCCCCCCC)CCCCCCCC.[Br-] + CCCCCC(=O)O
Details | electrical conductivity [S/m]
298.1 K, 100 kPa, x1 = 0.333 | 4.5e-06

CCCCCCCC[N+](CCCCCCCC)(CCCCCCCC)CCCCCCCC.[Br-] + CCCCCCC(=O)O
Details | electrical conductivity [S/m]
298.1 K, 100 kPa, x1 = 0.333 | 4.5e-06

CCCCCCCC[N+](CCCCCCCC)(CCCCCCCC)CCCCCCCC.[Br-] + CCCCCCCC(=O)O
Details | electrical conductivity [S/m]
298.1 K, 100 kPa, x1 = 0.333 | 4.5e-06

CCCCCCCC[N+](CCCCCCCC)(CCCCCCCC)CCCCCCCC.[Br-] + CCCCCCCCCC(=O)O
Details | electrical conductivity [S/m] | viscosity [mPa·s]
293 K, 100 kPa, x1 = 0.3333 | – | 910
298 K, 100 kPa, x1 = 0.3333 | – | 650
298.1 K, 100 kPa, x1 = 0.333 | 4.5e-06 | –
303 K, 100 kPa, x1 = 0.3333 | – | 470
303.15 K, 101 kPa, x2 = 0.6667 | – | 469
313 K, 100 kPa, x1 = 0.3333 | – | 260
318.15 K, 100 kPa, x1 = 0.333 | – | 208
323.15 K, 101 kPa, x2 = 0.6667 | – | 174
333 K, 100 kPa, x1 = 0.3333 | – | 98
353.15 K, 101 kPa, x2 = 0.6667 | – | 56
